Data from patent US20080241919A1, “Defined media for pluripotent stem cell culture” (The Burnham Institute of Medical Research, priority 2003, published 2008).

Legend:
[1] = tested on: human embryonic stem cells (hESCs); assay: bFGF dose-response, maintenance of undifferentiated hESCs under feeder-free condition on laminin/collagen-coated plates; assay type: cell-based
Procedure: (c) bFGF dose-response assays—assessing maintenance of the undifferentiated state.
To discover the minimal essential conditions needed to support the long-term growth of undifferentiated hESCs, morphological analysis was used to assess the developmental stage of hESCs at different times. For these analyses hESCs were grown in a 6- or 12-well plate to maturation (day 6 or 7 after seeding) before being fixed and visualized under a phase contrast microscope. Cellular immunofluorescence was also employed to assess the state of differentiation of hESCs. To perform these studies, hESCs were grown to maturation (day 6 or 7 after seeding) in a 12- or 24-well plate with a round cover slide in the bottom of each well. The cells were then fixed with 4% paraformaldehyde and blocked in PBS buffer containing 0.2% Triton X-100 and 2% BSA. Next, the cells were incubated with a primary antibody (Oct-4, SSEA-1, SSEA-3, SSEA-4, Tra-1-60, Tra-1-81, alkaline phosphatase, Myc, Map-2, Nkx2.5, bFGF (Santa Cruz Biotechnology, Inc.; Santa Cruz, Calif., world wide web: scbt.com) nestin, tyrosine hydroxylase (Chemicon International, Temecula, Calif., world wide web: chemicon.com), beta-tubulin (Sigma), p300, Tip60, or acetylated H4 (K5, 8, 12, 16) (Upstate Biotechnology, Lake Placid, N.Y., world wide web: upstate.com) in wash buffer (0.1% Triton X-100 in PBS) at 4° C. overnight, and then with secondary antibody (Molecular Probe; Eugene, Oreg., world wide web: probes.com) in wash buffer at room temperature for 45 minutes. After further staining with DAPI, cells were mounted onto a microscope slide and visualized under an immunofluorescence and deconvolution microscope. The state of differentiation of hESC was further assessed by generating (via lentiviral-mediated transduction) hESCs carrying a reporter gene (enhanced green fluorescence protein (EGFP)) under control of the Oct-4 promoter. Using these transfected hESCs (carrying Oct-4 driven EGFP), the undifferentiated state of hESCs can be visualized by green fluorescence (indicating Oct-4 expression).
The mechanism by which MEF-conditioned media exerts these effects is unknown, and it could involve the presence of growth factors, removal of toxic factors from the medium, or both. Based on the discovery that bFGF (at relatively high concentrations) promotes undifferentiated growth of hESCs on HFFs, it was decided to test whether bFGF promotes undifferentiated growth of hESCs on matrix proteins in the absence of feeder cells. Gelatin pre-coated plates were incubated with a commercially-available combination of laminin and collagen known as Matrigel (Growth factor reduced, Becton Dickinson) [diluted 1:30 in cold DMEM/F-12] at 4° C. overnight. The growth of hESCs on laminin/collagen-coated plates in the defined hESC media containing 20 ng/ml bFGF was examined. […]
To further assess the effect of bFGF on hESC undifferentiated growth, short-term proliferation assays of hESCs maintained under the feeder-free condition in the defined hESC media containing 0, 4, 10, 20, 30, or 50 ng/ml bFGF were performed. […] To further affirm the role of bFGF on hESC undifferentiated growth, hESCs carrying a reporter gene (enhanced green fluorescence protein [EGFP]) under control of Oct-4 promoter were generated (via lentiviral-mediated transduction).

[2] = tested on: Oct-4 expression in hESCs; assay: hESCs carrying Oct-4 promoter-driven EGFP reporter, with or without bFGF; assay type: cell-based, human
Source text: (d) bFGF is critical for sustaining undifferentiated growth of hESCs carrying an Oct-4-driven reporter gene. hESCs carrying a reporter gene (enhanced green fluorescence protein [EGFP]) that is under control of the Oct-4 promoter was generated via lentiviral-mediated transduction.
FIG. 6: (a) Growth of hESCs carrying an Oct-4-driven reporter gene in the presence or absence of bFGF. hESCs carrying a reporter gene (enhanced green fluorescence protein [EGFP]) that is under control of the Oct-4 promoter was generated via lentiviral-mediated transduction. Transfected hESCs were cultivated under the feeder-free conditions in the defined media with bFGF (20 ng/ml) or without bFGF for 4 days. […] The cells were further dissociated and analyzed on a BD FacsSort instrument after staining with 7-aminoactinomycin D (7-AAD) to eliminate the dead cells [E]. With FACS-sorting, significant increases (200%) of Oct4-EGFP negative cells were observed after withdrawal bFGF for 4 days. (Note the actual percentage of Oct4-EGFP negative cells in the absence of bFGF should be even higher, because it takes around 2 days for the green fluorescence to be completely quenched after Oct-4 expression has been turned off.) (b) bFGF concentration in MEF-CM. Growth-arrested MEFs were obtained from Specialty Media (Phillipsburg, N.J.). […] 50 μl of concentrates was loaded onto a SDS/PAGE gel and analyzed by Western blot. […]
To discover the minimal essential conditions needed to support the long-term growth of undifferentiated hESCs, morphological analysis was used to assess the developmental stage of hESCs at different times. […] The state of differentiation of hESC was further assessed by generating (via lentiviral-mediated transduction) hESCs carrying a reporter gene (enhanced green fluorescence protein (EGFP)) under control of the Oct-4 promoter. Using these transfected hESCs (carrying Oct-4 driven EGFP), the undifferentiated state of hESCs can be visualized by green fluorescence (indicating Oct-4 expression). […]

[3] = tested on: human embryonic stem cells (hESCs); assay: Short-term proliferation assay (growth rate) of hESCs in defined hESC media; assay type: cell-based; details: feeder-free
Procedure: (b) Short-term proliferation assays—assessing cell number. The growth rate of hESCs maintained under the feeder-free condition in the defined hESC media containing 0, 4, 10, 20, 30, or 50 ng/ml bFGF were determined and compared to that of hESCs maintained on laminin/collagen-coated plates in the MEF-conditioned media (MEF-CM) containing 10 ng/ml bFGF (see, for example, Xu, C., et al., Nat. Biotechnol. 19, 971-974 (2001)).
To further assess the effect of bFGF on hESC undifferentiated growth, short-term proliferation assays of hESCs maintained under the feeder-free condition in the defined hESC media containing 0, 4, 10, 20, 30, or 50 ng/ml bFGF were performed. The growth rate (FIG. 1b) and the percentage of undifferentiated colonies (FIG. 1c) in response to bFGF doses were compared to those of hESCs maintained in MEF-conditioned media (MEF-CM) (the latter also actually “spiked” with an additional 10 ng/ml bFGF). […] To further affirm the role of bFGF on hESC undifferentiated growth, hESCs carrying a reporter gene (enhanced green fluorescence protein [EGFP]) under control of Oct-4 promoter were generated (via lentiviral-mediated transduction).

## bFGF: basic fibroblast growth factor, growth factor added to the defined hESC media
[1]; absence of bFGF, laminin/collagen, first passage
  hESC colonies with completely differentiated morphology that ceased expressing Oct-4: approximately 80%
[1]; bFGF 30 and 50 ng/ml versus 20 ng/ml, 7 days
  percentage of undifferentiated hESC colonies at higher dosages: slightly decreased percentages of undifferentiated hESC colonies
[1]; defined hESC media containing 20 ng/ml bFGF, laminin/collagen-coated plates, each passage, day 7
  hESC colonies highly compact and undifferentiated (morphology, Oct-4, SSEA-4, Tra-1-60, Tra-1-81 expression): Over 80%
[1]; low concentration of bFGF (4 ng/ml), feeder-free, defined media
  differentiation rate of hESCs: high differentiation rates
[1]; tested 0, 4, 10, 20, 30, 50 ng/ml, 7 days
  bFGF concentration maintaining the optimal proportion of undifferentiated hESCs, comparable to MEF-CM: 20 ng/mL
[2]; absence of bFGF, first passage (day 7 after seeding)
  cells inside colonies with differentiated morphology that ceased Oct-4 expression: more than 70%
[2]; defined media containing 20 ng/ml bFGF, feeder-free
  morphology and Oct-4-driven EGFP fluorescence of hESC colonies: undifferentiated morphology and strong green fluorescence
[2]; withdrawal of bFGF for 4 days
  increase of Oct4-EGFP negative cells by FACS: 200%
[3]; bFGF 10 to 50 ng/ml, compared with MEF-CM
  growth rate of hESCs: growth rate comparable to that maintained in MEF-CM
[3]; low concentration of bFGF (4 ng/ml), defined media
  growth of hESCs: significantly slow growth
